Experimental data taken from US9850283B2, “Macrocyclic inhibitors of the PD-1/PD-L1 and CD80(B7-1)/PD-L1 protein/protein interactions” (BRISTOL-MYERS SQUIBB COMPANY, priority 2013, dated 2017).
Starred links: 1 amine or outer side, 2 acyl side, 3 side chain; linkers in the order of their positions; H or OH if unused. Positions of bridges follow the written chain, without caps; N, C: chain ends. Non-standard residues stand in square brackets, D forms with d. Residues, ends and D or L forms follow the SMILES beside them. ξ: configuration not given here. X19 = CCCOc1cccc(-c2[nH]c3ccccc3c2C[C@H](N[*:1])C(=O)[*:2])c1; X5 = CCCOc1ccc(-c2[nH]c3ccccc3c2C[C@H](N[*:1])C(=O)[*:2])cc1; X2 = CCOc1ccc(-c2[nH]c3ccccc3c2C[C@H](N[*:1])C(=O)[*:2])cc1; X6 = O=C([C@H](Cc1c(-c2ccc(F)cc2)[nH]c2ccccc12)N[*:1])[*:2]; X7 = COc1ccc(-c2[nH]c3ccccc3c2C[C@H](N[*:1])C(=O)[*:2])cc1; X8 = COc1cccc(-c2[nH]c3ccccc3c2C[C@H](N[*:1])C(=O)[*:2])c1; Hyp = O=C(O)[C@@H]1C[C@@H](O)CN1; NMeNle = CCCC[C@H](NC)C(=O)O; ξR = N=C(N)NCCCC(N)C(=O)O; NMeA = CN[C@@H](C)C(=O)O; Dap = NC[C@H](N)C(=O)O

Assays:
Human PD-L1/PD-1 = target: T1, Human PD-L1/PD-1 (Homo sapiens, UniProt Q9NZQ7); assay: HTRF PD-1-Ig/PD-L1-His binding assay (human PD-L1); conditions: cluster symbol; read-out: HTRF IC50 cluster
T1 construct: made in house; host or cells: HEK293T
T1 sequence (Q9NZQ7 with tags, fused parts or gaps): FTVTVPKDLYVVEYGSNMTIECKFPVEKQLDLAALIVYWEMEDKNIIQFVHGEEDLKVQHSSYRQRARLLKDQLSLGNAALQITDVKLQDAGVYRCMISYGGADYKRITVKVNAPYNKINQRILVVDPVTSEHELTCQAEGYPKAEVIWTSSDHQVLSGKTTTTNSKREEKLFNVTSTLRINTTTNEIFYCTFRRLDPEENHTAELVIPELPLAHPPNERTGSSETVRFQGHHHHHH
In short: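 Readout: time-resolved FRET between Eu cryptate-labeled anti-Ig (1 nM final) and APC-labeled anti-His (20 nM final) antibodies. These detect interaction of Fc-fused PD-1 with His-tagged human PD-L1 in dPBS containing 0.1% BSA and 0.05% Tween-20.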

[1] = target: T2, LK35.2-hPD-L1 cells / PE-labeled PD-1-Ig (Homo sapiens, UniProt Q9NZQ7); assay: LK35.2-hPD-L1 cell binding high-content screening assay; type: cell-based; conditions: cell binding assay, cell line not given; cluster symbol; read-out: CBA IC50 cluster
T2 construct: expressed in transfected cells; host or cells: LK35.2 mouse B cell line
T2 sequence (Q9NZQ7 19-290): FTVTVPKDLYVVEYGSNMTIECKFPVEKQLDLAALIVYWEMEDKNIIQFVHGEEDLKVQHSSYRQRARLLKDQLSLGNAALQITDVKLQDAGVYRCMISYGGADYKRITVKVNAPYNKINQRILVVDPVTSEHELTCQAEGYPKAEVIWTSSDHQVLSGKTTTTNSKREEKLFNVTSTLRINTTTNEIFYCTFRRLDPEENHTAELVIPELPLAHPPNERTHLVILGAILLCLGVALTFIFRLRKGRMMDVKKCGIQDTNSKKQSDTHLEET
In short: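 Binding of PE-conjugated human PD-1-Ig (1 nM final) to human PD-L1 stably expressed on a mouse B-cell line (LK35.2) was measured by high-content imaging after washes. Compound and labeled PD-1-Ig were co-incubated 1 h at 37 °C with cells in RPMI/10% FCS.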

Row | SMILES | IC50 (Human PD-L1/PD-1) [nM] | IC50 [1] [nM]
1 | CCCC[C@H]1C(=O)N(C)[C@@H](CCCC)C(=O)NC(CCCNC(=N)N)C(=O)N[C@H](C(=O)NCC(N)=O)CSCC(=O)N[C@@H](Cc2ccc(O)cc2)C(=O)N(C)[C@@H](C)C(=O)N[C@@H](CC(N)=O)C(=O)N2CCC[C@H]2C(=O)N[C@@H](CN)C(=O)N[C@@H](CC(C)C)C(=O)N2C[C@H](O)C[C@H]2C(=O)N[C@@H](Cc2c[nH]c3ccccc23)C(=O)N[C@@H](CO)C(=O)N[C@@H](Cc2c(-c3ccc(F)cc3)[nH]c3ccccc23)C(=O)N1C (some centres unmarked) [Example 7002] ({CH2CO}-Y[NMeA]NP[Dap]L[Hyp]WS[X6][NMeNle][NMeNle][ξR]CG-NH2; thioether N-14) | 0.385 to 6.74 | 0.158 to 4.71
2 | CCCC[C@H]1C(=O)N(C)[C@@H](CCCC)C(=O)NC(CCCNC(=N)N)C(=O)N[C@H](C(=O)NCC(N)=O)CSCC(=O)N[C@@H](Cc2ccc(O)cc2)C(=O)N(C)[C@@H](C)C(=O)N[C@@H](CC(N)=O)C(=O)N2CCC[C@H]2C(=O)N[C@@H](CN)C(=O)N[C@@H](CC(C)C)C(=O)N2C[C@H](O)C[C@H]2C(=O)N[C@@H](Cc2c[nH]c3ccccc23)C(=O)N[C@@H](CO)C(=O)N[C@@H](Cc2c(-c3cccc(OC)c3)[nH]c3ccccc23)C(=O)N1C (some centres unmarked) [Example 7003] ({CH2CO}-Y[NMeA]NP[Dap]L[Hyp]WS[X8][NMeNle][NMeNle][ξR]CG-NH2; thioether N-14) | 0.385 to 6.74 | 4.78 to 72.9
3 | CCCC[C@H]1C(=O)N(C)[C@@H](CCCC)C(=O)NC(CCCNC(=N)N)C(=O)N[C@H](C(=O)NCC(N)=O)CSCC(=O)N[C@@H](Cc2ccc(O)cc2)C(=O)N(C)[C@@H](C)C(=O)N[C@@H](CC(N)=O)C(=O)N2CCC[C@H]2C(=O)N[C@@H](CN)C(=O)N[C@@H](CC(C)C)C(=O)N2C[C@H](O)C[C@H]2C(=O)N[C@@H](Cc2c[nH]c3ccccc23)C(=O)N[C@@H](CO)C(=O)N[C@@H](Cc2c(-c3cccc(OCCC)c3)[nH]c3ccccc23)C(=O)N1C (some centres unmarked) [Example 7004] ({CH2CO}-Y[NMeA]NP[Dap]L[Hyp]WS[X19][NMeNle][NMeNle][ξR]CG-NH2; thioether N-14) | 0.385 to 6.74 | 4.78 to 72.9
4 | CCCC[C@H]1C(=O)N(C)[C@@H](CCCC)C(=O)NC(CCCNC(=N)N)C(=O)N[C@H](C(=O)NCC(N)=O)CSCC(=O)N[C@@H](Cc2ccc(O)cc2)C(=O)N(C)[C@@H](C)C(=O)N[C@@H](CC(N)=O)C(=O)N2CCC[C@H]2C(=O)N[C@@H](CN)C(=O)N[C@@H](CC(C)C)C(=O)N2C[C@H](O)C[C@H]2C(=O)N[C@@H](Cc2c[nH]c3ccccc23)C(=O)N[C@@H](CO)C(=O)N[C@@H](Cc2c(-c3ccc(OCCC)cc3)[nH]c3ccccc23)C(=O)N1C (some centres unmarked) [Example 7005] ({CH2CO}-Y[NMeA]NP[Dap]L[Hyp]WS[X5][NMeNle][NMeNle][ξR]CG-NH2; thioether N-14) | 0.385 to 6.74 | 4.78 to 72.9
5 | CCCC[C@H]1C(=O)N(C)[C@@H](CCCC)C(=O)NC(CCCNC(=N)N)C(=O)N[C@H](C(=O)NCC(N)=O)CSCC(=O)N[C@@H](Cc2ccc(O)cc2)C(=O)N(C)[C@@H](C)C(=O)N[C@@H](CC(N)=O)C(=O)N2CCC[C@H]2C(=O)N[C@@H](CN)C(=O)N[C@@H](CC(C)C)C(=O)N2C[C@H](O)C[C@H]2C(=O)N[C@@H](Cc2c[nH]c3ccccc23)C(=O)N[C@@H](CO)C(=O)N[C@@H](Cc2c(-c3ccc(OC)cc3)[nH]c3ccccc23)C(=O)N1C (some centres unmarked) [Example 7006] ({CH2CO}-Y[NMeA]NP[Dap]L[Hyp]WS[X7][NMeNle][NMeNle][ξR]CG-NH2; thioether N-14) | 0.385 to 6.74 | 0.158 to 4.71
6 | CCCC[C@H]1C(=O)N(C)[C@@H](CCCC)C(=O)NC(CCCNC(=N)N)C(=O)N[C@H](C(=O)NCC(N)=O)CSCC(=O)N[C@@H](Cc2ccc(O)cc2)C(=O)N(C)[C@@H](C)C(=O)N[C@@H](CC(N)=O)C(=O)N2CCC[C@H]2C(=O)N[C@@H](CN)C(=O)N[C@@H](CC(C)C)C(=O)N2CCC[C@H]2C(=O)N[C@@H](Cc2c[nH]c3ccccc23)C(=O)N[C@@H](CO)C(=O)N[C@@H](Cc2c(-c3ccc(OC)cc3)[nH]c3ccccc23)C(=O)N1C (some centres unmarked) [Example 7008] ({CH2CO}-Y[NMeA]NP[Dap]LPWS[X7][NMeNle][NMeNle][ξR]CG-NH2; thioether N-14) | 0.385 to 6.74 | 0.158 to 4.71
7 | CCCC[C@H]1C(=O)N(C)[C@@H](CCCC)C(=O)NC(CCCNC(=N)N)C(=O)N[C@H](C(=O)NCC(N)=O)CSCC(=O)N[C@@H](Cc2ccc(O)cc2)C(=O)N(C)[C@@H](C)C(=O)N[C@@H](CC(N)=O)C(=O)N2CCC[C@H]2C(=O)N[C@@H](CN)C(=O)N[C@@H](CC(C)C)C(=O)N2C[C@H](O)C[C@H]2C(=O)N[C@@H](Cc2c[nH]c3ccccc23)C(=O)N[C@@H](CO)C(=O)N[C@@H](Cc2c(-c3ccc(OCC)cc3)[nH]c3ccccc23)C(=O)N1C (some centres unmarked) [Example 7009] ({CH2CO}-Y[NMeA]NP[Dap]L[Hyp]WS[X2][NMeNle][NMeNle][ξR]CG-NH2; thioether N-14) | 0.385 to 6.74 | 0.158 to 4.71
